The results in this text go back to ChEMBL document CHEMBL1201862, “PubChem BioAssay data set” (2004).

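Assay format: 96-well plates, 48-hour exposure. GI50 marks 50% less growth.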 Calls of active or inactive are those of the source. Rule as the data show it: active = GI50 up to about 1.1 µM and inactive = higher.

Among the test systems are 786-0; A549; CAKI-1; COLO 205; HCT-116; HL-60; HT-29; IGROV-1; KM12; LOX IMVI; M14; Malme-3M; OVCAR-3; OVCAR-5; SF-295; SF-539; SNB-19; SR; UACC-62; UO-31.
Test in all cases: inhibition of tumour cell growth, NCI panel, 48 h

In the case of `COc1ccc(N2C(=O)C(Cl)C2c2cc3cc(Br)ccc3nc2Cl)cc1` (stereo not given), the GI50 in the assay on 786-0 is 6.17 µM (inactive); in the assay with A549 it was 11 µM (inactive); with CAKI-1 it was 6.32 µM (inactive); in the assay on COLO 205, 4.91 µM (inactive); with HCT-116 it was 4.68 µM (inactive); in the assay with HL-60 it was 5.98 µM (inactive). Further, the GI50 in the assay on HT-29 was 4.68 µM (inactive); in the assay with IGROV-1 it was 5.12 µM (inactive); with KM12, 10.9 µM (inactive); with LOX IMVI, 0.838 µM (active); in the assay with M14 it was 4.86 µM (inactive); in the assay with Malme-3M, 4.94 µM (inactive). In addition, the GI50 is 8.45 µM (inactive) with OVCAR-3; 7.96 µM (inactive) in the assay with OVCAR-5; 11.9 µM (inactive) with SF-295; 5.07 µM (inactive) in the assay with SF-539; 9.93 µM (inactive) in the assay on SNB-19; 1.33 µM (inactive) in the assay on SR. In addition, the GI50 in the assay on UACC-62 is 4.37 µM (inactive); in the assay with UO-31, 0.701 µM (active).

With `C/C(=N/NC(=S)Nc1ccc([N+](=O)[O-])cc1)c1cccc(/C(C)=N\NC(=S)Nc2ccc([N+](=O)[O-])cc2)n1`, the GI50 in the assay on 786-0 was 0.264 µM (active); with A549, 0.594 µM (active); in the assay with CAKI-1, 0.631 µM (active); with COLO 205, 0.218 µM (active); in the assay on HCT-116, 0.291 µM (active); in the assay on HL-60, 0.265 µM (active). Besides, the GI50 in the assay with HT-29 was 0.628 µM (active); in the assay with IGROV-1, 0.569 µM (active); in the assay on KM12 it was 0.348 µM (active); in the assay with LOX IMVI it was 0.313 µM (active); in the assay with M14 it was 0.321 µM (active); in the assay on Malme-3M, 0.515 µM (active). For the same compound, the GI50 in the assay on OVCAR-3 is 0.0867 µM (active); in the assay with OVCAR-5, 2.29 µM (inactive); in the assay with SF-295 it was 0.564 µM (active); with SF-539 it was 0.458 µM (active); with SNB-19, 1.33 µM (inactive); in the assay with SR it was 0.216 µM (active). Moreover, the GI50 in the assay on UACC-62 was 0.493 µM (active); in the assay with UO-31, 0.382 µM (active).

For `CCCCCCCCCCCCOCCCOP(=O)([O-])OCC[N+](C)(C)C`, the GI50 is 10.8 µM (inactive) in the assay with 786-0; 64 µM (inactive) in the assay with A549; 13.2 µM (inactive) with CAKI-1; 6.75 µM (inactive) in the assay on COLO 205; 26.4 µM (inactive) in the assay with HCT-116; 7.21 µM (inactive) in the assay on HL-60. Moreover, the GI50 in the assay on HT-29 was 17.3 µM (inactive); with IGROV-1 it was 6.14 µM (inactive); in the assay with KM12, 2.95 µM (inactive); in the assay with LOX IMVI, 32.2 µM (inactive); with M14, 32.8 µM (inactive); with Malme-3M it was 64.7 µM (inactive). Besides, the GI50 in the assay on OVCAR-3 is 51.9 µM (inactive); with OVCAR-5 it was 21.1 µM (inactive); with SF-295, 35.5 µM (inactive); with SF-539, 31.2 µM (inactive); with SNB-19 it was 20.6 µM (inactive); with SR it was 11.9 µM (inactive). The GI50 was 28.1 µM (inactive) with UACC-62 and 49.4 µM (inactive) in the assay on UO-31.

Turning to `Clc1cc2ns[s+]c2cc1Cl`, the GI50 is > 75.9 µM (inactive) in the assay with 786-0; 56.9 µM (inactive) with A549; 18.9 µM (inactive) in the assay with CAKI-1; > 88.3 µM (inactive) in the assay on COLO 205; 41 µM (inactive) in the assay with HCT-116; 19.3 µM (inactive) in the assay with HL-60. In addition, the GI50 was 29.3 µM (inactive) in the assay on HT-29; 98.6 µM (inactive) in the assay with IGROV-1; 41 µM (inactive) in the assay with KM12; 9.48 µM (inactive) in the assay on LOX IMVI; 9.73 µM (inactive) in the assay with M14; > 100 µM (inactive) with Malme-3M. For the same compound, the GI50 is 65 µM (inactive) in the assay on OVCAR-3; > 62.7 µM (inactive) with OVCAR-5; 47.1 µM (inactive) in the assay on SF-295; 36.6 µM (inactive) in the assay with SF-539; > 74.8 µM (inactive) in the assay on SNB-19; 23.2 µM (inactive) in the assay with SR. The GI50 is 5.33 µM (inactive) in the assay with UACC-62 and 28.6 µM (inactive) in the assay on UO-31.

As to `CSS(C)(=O)=O`, the GI50 with 786-0 was 39.6 µM (inactive); in the assay on A549, 44.7 µM (inactive); with CAKI-1, 22.8 µM (inactive); with COLO 205, 1.95 µM (inactive); with HCT-116, 58.6 µM (inactive); in the assay on HL-60, 24.9 µM (inactive). The GI50 in the assay with HT-29 was 31 µM (inactive); in the assay with IGROV-1, 23.2 µM (inactive); in the assay with KM12 it was 34.3 µM (inactive); in the assay on LOX IMVI, 60.1 µM (inactive); in the assay with M14, 26.6 µM (inactive); in the assay with Malme-3M, 26.9 µM (inactive). For the same compound, the GI50 with OVCAR-3 is 16.7 µM (inactive); in the assay with OVCAR-5 it was 17.5 µM (inactive); with SF-295 it was 23.1 µM (inactive); with SF-539, 20.4 µM (inactive); with SNB-19, > 100 µM (inactive); in the assay on SR, 15.3 µM (inactive). Moreover, the GI50 in the assay on UACC-62 is 19.4 µM (inactive); in the assay with UO-31 it was 24.5 µM (inactive).

Regarding `Cc1ccccc1NC(=O)c1nc(S)nc(N)c1-c1ccccc1C`, the GI50 in the assay on 786-0, in the assay on A549, in the assay on CAKI-1, in the assay with COLO 205, in the assay on HCT-116 and with HL-60 was > 100 µM (inactive) in each case. Moreover, the GI50 in the assay on HT-29, in the assay with IGROV-1, in the assay on KM12, in the assay on LOX IMVI, with M14 and with Malme-3M was > 100 µM (inactive) each time. The GI50 in the assay with OVCAR-3, with OVCAR-5, with SF-295, in the assay with SF-539, in the assay with SNB-19 and in the assay on SR was > 100 µM (inactive) throughout. Also, the GI50 in the assay on UACC-62 and with UO-31 was > 100 µM (inactive) in each case.

`Cc1ccc(Oc2ccc(C(=O)c3cccc(C(=O)c4ccc(Oc5ccc(C)cc5)cc4)n3)cc2)cc1`: the GI50 in the assay on 786-0, in the assay on A549, in the assay on CAKI-1, in the assay with COLO 205, in the assay with HCT-116 and in the assay on HL-60 was > 100 µM (inactive) in each case. The GI50 in the assay on HT-29, in the assay with IGROV-1, in the assay with KM12, in the assay on LOX IMVI, with M14 and in the assay with Malme-3M was > 100 µM (inactive) each time. The GI50 in the assay with OVCAR-3, in the assay with OVCAR-5, in the assay on SF-295, with SF-539, in the assay with SNB-19 and in the assay on SR was > 100 µM (inactive) in each case. Also, the GI50 with UACC-62 and with UO-31 was > 100 µM (inactive) in each case.

Turning to `CC1(C)NC(C)(C)/C(=N\O)C(=NO)/C1=N/O`, the GI50 in the assay on 786-0, in the assay with A549, in the assay on CAKI-1, with COLO 205, in the assay on HCT-116 and in the assay on HL-60 was > 100 µM (inactive) throughout. Also, the GI50 with HT-29, in the assay with IGROV-1, in the assay with KM12, in the assay with LOX IMVI, in the assay with M14 and with Malme-3M was > 100 µM (inactive) each time. Moreover, the GI50 in the assay with OVCAR-3, with OVCAR-5, with SF-295, with SF-539, in the assay with SNB-19 and in the assay with SR was > 100 µM (inactive) in each case. The GI50 with UACC-62 and with UO-31 was > 100 µM (inactive) throughout.

With `CCCCCCCCCCCCCCCCCCNc1ccn(C2OC(COP(=O)(O)OCC3OC(n4ccc(N)nc4=O)C(O)C3O)C(O)C2O)c(=O)n1` (stereo not given), the GI50 was 44.7 µM (inactive) in the assay on 786-0; 8.59 µM (inactive) in the assay with A549; 67.6 µM (inactive) in the assay with CAKI-1; 47.3 µM (inactive) with COLO 205; 18.8 µM (inactive) in the assay with HCT-116; 10.2 µM (inactive) in the assay on HL-60. Further, the GI50 in the assay with HT-29 is 37.7 µM (inactive); in the assay with IGROV-1 it was 30.3 µM (inactive); with KM12 it was > 89.1 µM (inactive); in the assay on LOX IMVI it was 16.5 µM (inactive); with M14 it was 32 µM (inactive); with Malme-3M it was > 50 µM (inactive). The GI50 in the assay with OVCAR-3 was > 100 µM (inactive); in the assay with OVCAR-5, 98.6 µM (inactive); in the assay with SF-295, > 100 µM (inactive); with SF-539, > 100 µM (inactive); with SNB-19 it was 39.7 µM (inactive); in the assay on SR, > 37.6 µM (inactive). The results for the GI50 with UACC-62 and with UO-31 were > 93.3 µM (inactive) and 42.4 µM (inactive), respectively.

As to `CO[C@H]1C[C@H](O[C@H]2CC[C@@]3(C)[C@H](CC[C@@H]4[C@@H]3CC[C@]3(C)[C@@H](C5=CC(=O)OC5)CC[C@]43O)C2)O[C@H](C)[C@H]1O`, the GI50 is < 0.01 µM (active) with 786-0; < 0.01 µM (active) in the assay on A549; < 0.01 µM (active) in the assay with CAKI-1; 0.0695 µM (active) in the assay with COLO 205; < 0.01 µM (active) with HCT-116; < 0.01 µM (active) with HL-60. In addition, the GI50 is < 0.01 µM (active) with HT-29; < 0.01 µM (active) in the assay on IGROV-1; < 0.011 µM (active) in the assay with KM12; < 0.01 µM (active) in the assay with LOX IMVI; 0.0168 µM (active) with M14; < 0.01 µM (active) in the assay on Malme-3M. Moreover, the GI50 was < 0.01 µM (active) in the assay on OVCAR-3; < 0.0149 µM (active) in the assay on OVCAR-5; < 0.01 µM (active) in the assay with SF-295; < 0.01 µM (active) in the assay on SF-539; 0.0158 µM (active) with SNB-19; < 0.01 µM (active) in the assay with SR. For the same compound, the GI50 in the assay with UACC-62 is < 0.0125 µM (active); in the assay on UO-31, < 0.01 µM (active).
